We go through three molecules from patent publication US20090246186A1, “AGENT FOR IMPROVING NERVOUS SYSTEM CELL FUNCTIONS” (KANEKA CORPORATION, priority 2006, published 2009).

One data set has as its system rat. Particulars: 1.2 g/kg/day for 52 consecutive weeks; cited from earlier work.
A further data set concerns PC12 cells. The data set is described as follows: Nerve cell protection on hydrogen peroxide-induced cell death (intracellular ATP amount). The class given is cell-based. As to conditions: 25, 50, 100 μg/ml for 24 hr, then 0.06 mM hydrogen peroxide; compared with oxidized coenzyme Q10. Here is the method: As one of the causes of the nerve cell death, active oxygen species produced for various reasons is known. Therefore, a cell death protecting action of reduced coenzyme Q10 when PC12 cells are exposed to hydrogen peroxide was examined. PC12 cells were cultured in Dulbecco's Modified Eagle Medium containing 200 units of penicillin, 0.1 μg/ml streptomycin, and 10% fetal bovine serum under 37° C., 5% CO2 conditions. The cells were plated to a 96 well microplate at 1×10^4 cells/well, and cultured under the conditions of 37° C., 5% CO2. After 24 hr, the medium was removed and substituted with Dulbecco's Modified Eagle Medium containing 200 units of penicillin, […] streptomycin and 0.5% fetal bovine serum and supplemented with reduced coenzyme Q10 and oxidized coenzyme Q10 (25, 50, 100 μg/ml). After 24 hr, the medium was removed, and the cells were exposed to hydrogen peroxide so that the final concentration in the same medium would be 0.06 mM 24 hr later, and cultured under the conditions of 37° C., 5% CO2 for 15 min. The cells were washed 3 times with PBS, and the intracellular ATP amount was measured using an ATP quantify kit (Perkin Elmer) and compared.

Data set [1] concerns normal rat or spontaneously diabetic rat. As to conditions: cited from earlier work.
The next data set has as its system SAMP8 mice. Nature of the data set: Step-through passive avoidance learning experiment. The class given is in vivo, mouse. From the text: Aging promoted mouse (SAMP8,3-week-old, male, each group N=8−10) models were divided into a group given a feed (CE-2, manufactured by (LEA Japan, Inc.) containing 0.5% of reduced coenzyme Q10 (containing about 1% oxidized coenzyme Q10) obtained in Production Example 1 and a group given a basic feed (CE-2, manufactured by CLEA Japan, Inc.) alone as a control group. The both groups were allowed a free access to the feed. The dose of reduced coenzyme Q10 obtained from the ingested amount of the feed and the body weight of the animal generally corresponded to 300-500 mg/kg/day.
The effect of reduced coenzyme Q for the learning and memory function was examined by a step-through passive avoidance learning experiment. When SAMP8 mice were placed in a light compartment of an apparatus consisting of two light and dark compartments, they enter the dark compartment since mouse prefers darkness. The mice were taught that the dark compartment was dangerous by applying an electric current (0.5 mA) for 3 sec from the floor of the dark compartment (acquisition trial). […]
To be specific, the mice were placed in the same apparatus again, and the time of stay in the light compartment was measured, based on which the learning, memory function of the mice was compared between with and without ingestion of reduced coenzyme Q in the present invention. […]

Data set [2] deals with model mouse with Parkinson's disease. As to conditions: cited from earlier work.

In the case of `COC1=C(OC)C(=O)C(C/C=C(\C)CC/C=C(\C)CC/C=C(\C)CC/C=C(\C)CC/C=C(\C)CC/C=C(\C)CC/C=C(\C)CC/C=C(\C)CC/C=C(\C)CCC=C(C)C)=C(C)C1=O` [Oxidized coenzyme Q10, oxidized coenzyme Q10], in the data set with rat, the toxicity result was “no toxicity was observed”.

In the case of `COc1c(O)c(C)c(C/C=C(\C)CC/C=C(\C)CC/C=C(\C)CC/C=C(\C)CC/C=C(\C)CC/C=C(\C)CC/C=C(\C)CC/C=C(\C)CC/C=C(\C)CCC=C(C)C)c(O)c1OC` [reduced coenzyme Q10], the “cell death of PC12 cells induced by hydrogen peroxide” value in the data set with PC12 cells is on record as “significantly prevented”. Also, the “tissue degeneration caused by oxidative stress in the pancreas” value in data set [1] (diabetic rat) is on record as “suppress”. In data set [1] (normal rat or spontaneously diabetic rat), the “amount of 8-hydroxy deoxyguanosine (oxidization marker) in urine” value was “decrease”. In addition, in the data set with SAMP8 mice (feed containing 0.5% reduced coenzyme Q10 (300-500 mg/kg/day), after 8 weeks (11-week-old), vs control group), the “response latency time (passive avoidance test)” value is “the number of mouse that showed a prolonged response latency time increased”. In addition, the “learning and memory disorder-improving effect” value in the data set with SAMP8 mice (short time administration, feed containing 0.5% reduced coenzyme Q10, 8 weeks) is “a learning and memory disorder-improving effect was observed”.

For the molecule oxidized coenzyme Q, the symptom improving effect result in data set [2] is reported as “shows a symptom improving effect”.
